# Experiments:
# Settings in all cases: 48 h
# CU-ACC1 [1] = assay: AC50 viability; higher = less potent
# Procedure, shortened: (§1)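 In 1,536-well plates, 500–1,000 cells/well of three adrenocortical carcinoma cell lines in 5 µL medium received 23 nL of each library compound across 11 concentrations. At 48 h, CellTiter-Glo was incubated for 15 minutes at room temperature and luminescence measured. Per-plate normalisation used vehicle and empty-well controls, and only inhibitory or non-responding curve classes were kept when fitting concentration-response curves for AC50 and area under the curve.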
# NCI-H295R [2] = assay: AC50 viability; higher = less potent
# Procedure, shortened: as §1
# CU-ACC1 [3] = assay: area under concentration-response curve (viability) (AUC (a.u.)); higher = less active
# Procedure, shortened: as §1
# NCI-H295R [4] = assay: as above
# Procedure, shortened: as §1
Structure (SMILES),AC50 viability (CU-ACC1 [1]),AC50 viability (NCI-H295R [2]),area under concentration-response curve (CU-ACC1 [3]),area under concentration-response curve (NCI-H295R [4])
C[S+](=O)([O-])c1ccc([C@@H](CC2CCCC2)C(=O)Nc2nccs2)cc1,18.6 µM,16.6 µM,379,393
COc1cc(C(=O)NC2CCN(C)CC2)ccc1Nc1ncc2c(n1)N(C1CCCC1)CCC(=O)N2C(C)C,26.3 µM,23.5 µM,504,538
Clc1cc(Cl)cc(CNc2ncncc2-c2ccc3c(c2)OCO3)c1,14.8 µM,13.2 µM,412,430
CN1CCN(C2CCN(C(=O)Nc3cc(Oc4ccc(NC(=O)C5(C(=O)Nc6ccc(F)cc6)CC5)c(F)c4)ccn3)CC2)CC1,29.5 µM,20.9 µM,392,453
C[C@@H](NCCCc1cccc(C(F)(F)F)c1)c1cccc2ccccc12,10.5 µM,13.2 µM,467,501
CN(C)CCCNC(=O)c1ccc(-c2cc(O)c3ncccc3c2)cc1,16.6 µM,0.332 µM,376,360
CN(C)C(=O)C(CCN1CCC(O)(c2ccc(Cl)cc2)CC1)(c1ccccc1)c1ccccc1,16.6 µM,20.9 µM,506,549
C/C(=C\C(=O)Nc1ccccc1C(=O)O)c1ccc2ccccc2c1,7.42 µM,18.6 µM,451,449
Cc1[nH]c(/C=C2\C(=O)Nc3ccc([S+](=O)([O-])N(C)c4cccc(Cl)c4)cc32)c(C)c1C(=O)N1CCN(C)CC1,20.9 µM,33.2 µM,397,491
CCN1C(=O)N\2CC3=CC(=CC(=C3[C@@H](C)\C=C2C14CCN(CC4)CC5=CC(=CC(=C5)C)C)OC)OC,37.2 µM,18.6 µM,426,514
NCCCN([C@H](CC#C)C/1=N/C2=C(C=CC(=C2)Cl)C(=O)N1NC3=CC=CC=C3)C(=O)C4=CC=CC(=C4F)Cl,33.2 µM,20.9 µM,429,484
COc1cc(N2CCN(C)CC2)ccc1Nc1ncc2c(n1)N(C)c1ccccc1C(=O)N2,16.6 µM,23.5 µM,479,492
CCCC\1=C(/CNC(=O)C2=CC(=CC3=C2C=N[N]3C(C)C)C4=CC(=NC=C4)N5CCN(C)CC5)C(=O)NC(=C1)\C,18.6 µM,18.6 µM,478,501
COC1=CC2=C(C=C1OC)[C@H]3[C@@H](CO2)OC4=C(C=CC5=C4\C=C/C(C)(C)O5)C3=O,0.372 µM,16.6 µM,342,510
C[C@@H]\1COC(=N1)\NC2=CC3=C(C=C2)N=CN=C3NC4=CC(=C(OCC5=NC=CS5)C=C4)Cl,20.9 µM,41.7 µM,509,522
CCOC(CN1C(=O)[C@](CC(=O)Nc2ccc(C)cc2)(NC(=O)Nc2ccc(C)cc2)c2ccccc21)OCC,37.2 µM,29.5 µM,432,537

Structure (SMILES),AC50 viability (CU-ACC1 [1]),AC50 viability (NCI-H295R [2]),area under concentration-response curve (CU-ACC1 [3]),area under concentration-response curve (NCI-H295R [4])
Cc1c(C(=O)Nc2ccc(N3C[C@@H](C)O[C@@H](C)C3)nc2)cccc1-c1ccc(OC(F)(F)F)cc1,18.6 µM,20.9 µM,519,572
CCC(=O)O[C@@]1([C@@H](C)C[C@H]2[C@@H]3CCC/4=C/C(=O)/C=C\[C@]4(C)[C@@]3(F)[C@@H](O)C[C@]12C)C(=O)CCl,20.9 µM,20.9 µM,475,503
COC(=O)C1=C(C)NC(C)=C(C(=O)OCCN2CCN(C(c3ccccc3)c3ccccc3)CC2)C1c1cccc([N+](=O)[O-])c1.Cl.Cl (centres undefined),20.9 µM,11.8 µM,462,497
Clc1ccc(C(c2ccccc2Cl)C(Cl)Cl)cc1 (centres undefined),18.6 µM,20.9 µM,426,432
NC(=O)c1ccc2nc(-c3ccc(C4(N)CCC4)cc3)c(-c3ccccc3)n2n1,18.6 µM,16.6 µM,483,465
O=C1Nc2ccc(Cl)cc2[C@@](C#CC2CC2)(C(F)(F)F)O1,29.5 µM,20.9 µM,471,504
CC(=O)C\1=C(/C)C2=CN=C(NC3=CC=C(C=N3)N4CCNCC4)N=C2N(C5CCCC5)C1=O,16.6 µM,26.3 µM,461,487
CC(C)Oc1ccc(C(=O)N[C@H](CNC(=O)CN(C)C)Cc2ccc(-c3cn4cccc([C@H](C)O)c4n3)cc2)cc1Cl,16.6 µM,13.2 µM,424,427
[2H]C([2H])(Nc1nc(-c2ccccc2C([2H])(C([2H])([2H])[2H])C([2H])([2H])[2H])ncc1C)c1ccc(-n2ccnn2)cc1,16.6 µM,9.34 µM,469,531
COc1ccc(Cl)c(Nc2ncnc3cc(OCC4CCN(C)CC4)c(OC)cc23)c1,23.5 µM,26.3 µM,513,581
Cc1cccc(-c2n[nH]cc2-c2ccc(F)c(-c3cnn(CCO)c3)c2)n1,5.25 µM,13.2 µM,284,308
CC(C)C[C@H](NC(=O)c1cc2ccccc2s1)C(=O)N1CCN(C(=O)[C@H](CO)N[S+](=O)([O-])c2ccc(Cl)cc2Cl)CC1,16.6 µM,18.6 µM,445,494
COCc1c(-c2ccc(NC(=O)Nc3cc(C(F)(F)F)ccc3F)c(F)c2)c2c(N)ncnn2c1CN1CCOCC1,8.33 µM,6.61 µM,342,363
Cc1c(-c2ccc(O)cc2)n(Cc2ccc(OCCN3CCCCCC3)cc2)c2ccc(O)cc12,29.5 µM,23.5 µM,496,508
O=C(NCCCNc1nc(Nc2ccc(N3CCOCC3)cc2)ncc1C1CC1)C1CCC1,2.63 µM,14.8 µM,379,460
